From PMC10654507, “A cleavable chimeric peptide with targeting and killing domains enhances LPS neutralization and antibacterial properties against multi-drug resistant E. coli” (Communications Biology, 2023) come the findings set out here.

Assay [1] concerns Staphylococcus aureus ATCC43300. It is filed as cell-based. The conditions noted are these: ATCC43300, 18 h. As to the method:
(§1) The minimum inhibitory concentration (MIC) and minimum bactericidal concentration (MBC) of peptides were determined by the microtiter broth dilution method according to Clinical and Laboratory Standards Institute (CLSI) guidelines. […] PBS was used as the negative control. […] The MBC value was calculated as the lowest concentration of peptides resulting in a 99.9% reduction of the original inoculum. All experiments were repeated three times.

Assay [2] deals with Escherichia coli CVCC195. It is filed as cell-based. As to the method: as §1
Assay [3] has as its system E. coli, S. typhimurium and S. aureus. It is filed as cell-based. The conditions noted are these: 18 h. As to the method:
as §1

Assay [4] relates to S. typhimurium CVCC533. It is filed as cell-based, Salmonella typhimurium. As to the method:
as §1

The subject of assay [5] is S. aureus CVCC546. It counts as cell-based, Staphylococcus aureus. As to the method: as §1
For assay [6], the system named is E. coli 0111: B4 LPS. Briefly: BC (BODIPY-TR-cadaverine) displacement assay, binding to LPS. Also on record: species or system Escherichia coli; unit not given here. The conditions noted are these: Fig. 4a source data, mean. The procedure: The binding of peptides to LPS was determined according to the method described previously[34],[59]. In brief, E. coli 0111: B4 LPS (40 μg/mL) and BODIPY-TR-cadaverine (BC) (10 μM) were mixed in 50 mM Tris buffer (pH = 7.4) in equal proportions and added to a 96-well black plate (180 μL/well) in the dark. Different concentrations of chimeric peptide R7 and its parental (20 μL) were added into each well and detected by a fluorescence spectrophotometry at room temperature (excitation wavelength 580 nm, emission wavelength 620 nm). The change in relative fluorescence was recorded and the BC displacement rate was calculated. Polymycin B (PMB) was used as the positive control.

The mark [7] stands for this setting: lowest concentration giving 99.9% reduction of the inoculum, repeated three times.
[8] abbreviates: microtiter broth dilution, 10^5 CFU/mL, 37 °C, 16 ~ 18 h, repeated three times.

In brackets after ≈: the same amount, converted by molar mass. Like-named read-outs stand apart in the source and are kept apart here. Residues, ends and D or L forms follow the SMILES beside them. No end group written: not given here.

As for `CSCC[C@H](NC(=O)[C@H](CCCNC(=N)N)NC(=O)[C@H](Cc1c[nH]c2ccccc12)NC(=O)[C@H](C)NC(=O)[C@H](Cc1c[nH]c2ccccc12)NC(=O)[C@H](CCCNC(=N)N)NC(=O)[C@H](Cc1c[nH]c2ccccc12)NC(=O)[C@H](C)NC(=O)[C@H](CCCCN)NC(=O)[C@H](Cc1ccccc1)NC(=O)[C@H](CO)NC(=O)CNC(=O)CNC(=O)CNC(=O)CNC(=O)[C@H](CCCCN)NC(=O)[C@H](Cc1ccccc1)NC(=O)[C@H](Cc1ccccc1)NC(=O)[C@H](CO)NC(=O)[C@H](C)NC(=O)[C@H](CCCNC(=N)N)NC(=O)[C@@H](NC(=O)[C@H](CCCCN)NC(=O)[C@H](Cc1c[nH]c2ccccc12)NC(=O)[C@H](CCCNC(=N)N)NC(=O)CNC(=O)[C@H](CCC(N)=O)NC(=O)[C@@H](NC(=O)[C@@H](N)CCCNC(=N)N)C(C)C)C(C)C)C(=O)N[C@@H](CCCCN)C(=O)N[C@@H](CCCCN)C(=O)N[C@@H](CC(C)C)C(=O)N[C@@H](C)C(=O)N[C@@H](C)C(=O)N1CCC[C@H]1C(=O)N[C@@H](CO)C(=O)O` [G7] (H-RVQGRWKVRASFFKGGGGSFKAWRWAWRMKKLAAPS-OH), the MBC is >36.2 µM in assay [1]; 18.1 µM (≈ 75.9 µg/mL) in assay [2] (CVCC195, 18 h); >36.2 µM in assay [5] (CVCC546, 18 h). The MIC is >36.2 µM in assay [1]; 18.1 µM (≈ 75.9 µg/mL) in assay [2] (CVCC195, 18 h); >36.2 µM in assay [4] (CVCC533, 18 h); >36.2 µM in assay [5] (CVCC546, 18 h). The “antibacterial activity (MIC)” value in assay [3] is ≥ 18.1 µM.
`CC(C)[C@H](NC(=O)[C@H](CCCCN)NC(=O)[C@H](Cc1c[nH]c2ccccc12)NC(=O)[C@H](CCCNC(=N)N)NC(=O)CNC(=O)[C@H](CCC(N)=O)NC(=O)[C@@H](NC(=O)[C@@H](N)CCCNC(=N)N)C(C)C)C(=O)N[C@@H](CCCNC(=N)N)C(=O)N[C@@H](C)C(=O)N[C@@H](CO)C(=O)N[C@@H](Cc1ccccc1)C(=O)N[C@@H](Cc1ccccc1)C(=O)N[C@@H](CCCCN)C(=O)O` [LBP14, reference compound] (H-RVQGRWKVRASFFK-OH): the MBC in assay [1] is 36.2 µM (≈ 63.9 µg/mL); in assay [2] (CVCC195, 18 h) it was 4.53 µM (≈ 8 µg/mL); in assay [4] (CVCC533, 18 h), 18.1 µM (≈ 31.9 µg/mL); in assay [5] (CVCC546, 18 h) it was >36.2 µM. Besides, the MIC came out at 36.2 µM (≈ 63.9 µg/mL) in assay [1]; 4.53 µM (≈ 8 µg/mL) in assay [2] (CVCC195, 18 h); 18.1 µM (≈ 31.9 µg/mL) in assay [4] (CVCC533, 18 h); 36.2 µM (≈ 63.9 µg/mL) in assay [5] (CVCC546, 18 h).
As for `CC(C)[C@H](NC(=O)[C@H](CCCCN)NC(=O)[C@H](Cc1c[nH]c2ccccc12)NC(=O)[C@H](CCCNC(=N)N)NC(=O)CNC(=O)[C@H](CCC(N)=O)NC(=O)[C@@H](NC(=O)[C@@H](N)CCCNC(=N)N)C(C)C)C(=O)N[C@@H](CCCNC(=N)N)C(=O)N[C@@H](C)C(=O)N[C@@H](CO)C(=O)N[C@@H](Cc1ccccc1)C(=O)N[C@@H](Cc1ccccc1)C(=O)N[C@@H](CCCCN)C(=O)N[C@@H](CCCNC(=N)N)C(=O)N[C@@H](CCCCN)C(=O)N[C@@H](CCCNC(=N)N)C(=O)N[C@@H](CCCNC(=N)N)C(=O)O` [LBP14-RKRR] (H-RVQGRWKVRASFFKRKRR-OH), the MIC in assay [1] stood at 4.53 µM (≈ 10.7 µg/mL); in assay [2] (CVCC195, 18 h) it was 2.26 µM (≈ 5.34 µg/mL); in assay [4] (CVCC533, 18 h), 4.53 µM (≈ 10.7 µg/mL); in assay [5] (CVCC546, 18 h) it was 9.06 µM (≈ 21.4 µg/mL). The MBC stood at 2.26 µM (≈ 5.34 µg/mL) in assay [2] (CVCC195, 18 h) and 9.06 µM (≈ 21.4 µg/mL) in assay [5] (CVCC546, 18 h).
On to `CC(C)[C@H](NC(=O)[C@H](CCCCN)NC(=O)[C@H](Cc1c[nH]c2ccccc12)NC(=O)[C@H](CCCNC(=N)N)NC(=O)CNC(=O)[C@H](CCC(N)=O)NC(=O)[C@@H](NC(=O)[C@@H](N)CCCNC(=N)N)C(C)C)C(=O)N[C@@H](CCCNC(=N)N)C(=O)N[C@@H](C)C(=O)N[C@@H](CO)C(=O)N[C@@H](Cc1ccccc1)C(=O)N[C@@H](Cc1ccccc1)C(=O)N[C@@H](CCCCN)C(=O)N[C@@H](CCCNC(=N)N)C(=O)N[C@@H](CCCCN)C(=O)N[C@@H](CCCNC(=N)N)C(=O)O` [LBP14-RKR] (H-RVQGRWKVRASFFKRKR-OH), for which the MIC in assay [1] turned out to be 4.53 µM (≈ 9.99 µg/mL); in assay [2] (CVCC195, 18 h) it was 2.26 µM (≈ 4.98 µg/mL); in assay [4] (CVCC533, 18 h) it was 4.53 µM (≈ 9.99 µg/mL); in assay [5] (CVCC546, 18 h), 9.06 µM (≈ 20 µg/mL).
For `CSCC[C@H](NC(=O)[C@H](CCCNC(=N)N)NC(=O)[C@H](Cc1c[nH]c2ccccc12)NC(=O)[C@H](C)NC(=O)[C@H](Cc1c[nH]c2ccccc12)NC(=O)[C@H](CCCNC(=N)N)NC(=O)[C@H](Cc1c[nH]c2ccccc12)NC(=O)[C@H](C)NC(=O)[C@H](CCCCN)NC(=O)[C@H](Cc1ccccc1)NC(=O)[C@@H](N)CCCNC(=N)N)C(=O)N[C@@H](CCCCN)C(=O)N[C@@H](CCCCN)C(=O)N[C@@H](CC(C)C)C(=O)N[C@@H](C)C(=O)N[C@@H](C)C(=O)N1CCC[C@H]1C(=O)N[C@@H](CO)C(=O)O` [R-L7] (H-RFKAWRWAWRMKKLAAPS-OH), the MIC came out at 18.1 µM (≈ 41.4 µg/mL) in assay [1]; 2.26 µM (≈ 5.17 µg/mL) in assay [2] (CVCC195, 18 h); 18.1 µM (≈ 41.4 µg/mL) in assay [4] (CVCC533, 18 h); 18.1 µM (≈ 41.4 µg/mL) in assay [5] (CVCC546, 18 h).
For “RVQGRWKVRASFFKEAAAKEAAAKFKAWRWAWRMKKLAAPS [A7]”, the MBC in assay [1] was >36.2 µM; in assay [2] (CVCC195, 18 h) it was 36.2 µM; in assay [4] (CVCC533, 18 h) it was >36.2 µM; in assay [5] (CVCC546, 18 h) it was >36.2 µM. Also, the MIC was >36.2 µM in assay [1]; 36.2 µM in assay [2] (CVCC195, 18 h); >36.2 µM in assay [4] (CVCC533, 18 h); >36.2 µM in assay [5] (CVCC546, 18 h). Further, the “antibacterial activity (MIC)” value in assay [3] is ≥ 18.1 µM.
As to polymyxin B [PMB, reference compound], the MBC in assay [2] (setting [7]) is 1 µM; in assay [4] (setting [7]) it was 8 µM; in assay [5] (setting [7]) it was >64 µM. Besides, the MIC in assay [2] (setting [8]) was 1 µM; in assay [4] (setting [8]), 8 µM; in assay [5] (setting [8]) it was >64 µM. The “binding affinity to LPS” value in assay [6] (peptide concentration 0.05 μM) was found to be 10.8258; in assay [6] (peptide concentration 0.1 μM), 13.138; in assay [6] (peptide concentration 0.5 μM) it was 19.3303; in assay [6] (peptide concentration 1 μM), 24.2435; in assay [6] (peptide concentration 5 μM), 53.9917; in assay [6] (peptide concentration 10 μM) it was 65.3662. Moreover, the “binding affinity to LPS” value amounted to 89.1421 in assay [6] (peptide concentration 50 μM) and 85.6684 in assay [6] (peptide concentration 100 μM).

In general, MBC refers to the lowest tested concentration that kills the bacteria rather than only halting them. Usually MIC stands for the least concentration at which growth counts as inhibited.
